Assay results as given in patent US20060234909A1, “Compositions and methods for increasing drug efficiency” (priority 2003, published 2006).
Primed or numbered codes have the meaning given here. * marks the point of attachment. 10Ca = carbamate linkage conjugating the peptide-PEG to paclitaxel at C10; 10Ca‑PXL = paclitaxel conjugated at C10 via a carbamate; 3Am‑VBL = vinblastine (VBL) conjugate; 3′Alk‑MAL(9) = not defined here; ALK(6) = not defined here; MAL(9) = not defined here; 3′Alk = not defined here; PEG(11) = PEG(11) linker; PEG(29) = PEG(29) linker; 10Es = not defined here; 3Am = not defined here; Cbz = O=C(OCc1ccccc1)*; PEG(13) = PEG13 linker; Boc = CC(C)(C)OC(=O)*; Piv = CC(C)(C)C(=O)*; OBn = c1ccc(CO*)cc1; DOX = doxorubicin; VBL = vinblastine; PXL = paclitaxel

What was measured:
[1] = target: T1, Human Src (Homo sapiens, UniProt P12931); assay: Src kinase assay (PKLight ATP utilization, substrate phosphorylation as % of parent peptide); assay type: biochemical; conditions: for Src (Qual. Act.): DOX-Src kinase substrate conjugates
T1 construct: purchased Upstate (Charlottesville, Va.) 14-326
Protocol: Another test may involve monitoring the consumption of ATP. For example, ATP concentrations at time 0 or after 4 hour incubation may be monitored by luciferase reaction (PKLight kit obtained from Cambrex Corporation, One Meadowlands Plaza, East Rutherford, N.J. 07073), which generate a luminescence readout in the presence of ATP. Assays are initiated by mixing a kinase and a peptide in the presence of 40 μM ATP. After 4 hour of incubation at 30° C., PKLight reagent is added and mixed well, and luminescence readout measured. The rate of peptide phosphorylation is then directly related to the rate of decrease in the observed luminescence. Based on the first test, linkers of appropriate lengths and peptides with an effective amount of kinase activity which may be expected to be retained in the drug conjugate may be found.
Human Src (#14-326) and Akt (#14-276) kinases were purchased from Upstate (Charlottesville, Va.). Kinase reactions were carried out in 50 μl kinase reaction cocktail (25 mM Tris-HCl, pH 7.5, 5 μM β-glycerophosphate, 2 mM DTT, 0.1 mM Na3VO4, 10 mM MgCl2, 1 mg/ml BSA, […], 0.5 to 1.0 units enzyme). Substrates (peptide or drug-peptide conjugate in […]) were added (25, 50 and 100 μM) and the reaction was incubated for 2-5 hours at 30° C. PKLight reagent (23 μl) (Cambrex BioSciences, Rockland, Me.) was mixed with […] of the above kinase reaction and ATP utilization relative to no substrate and no ATP controls was determined by measuring luminescence with a SpectraMax Gemini EM plate reader (Molecular Devices, Sunnyvale, Calif.). Peptide substrates for Src and Akt have been described. For examples, see Lou et al. Letters in Peptide Science, 2, 289-296 (1995); Lou et al. Bioorganic & Medicinal Chemistry, 4, 677-682 (1996); Alessi et al. FEBS Letters, 399, 333-338 (1996). Substrate phosphorylation potential was determined from the linear portion of the substrate concentration dose response as a percentage of the activity observed with the parent peptide used for drug conjugation.

[2] = test system: HUVEC; assay: Cytotoxicity assay (monolayer), HUVEC; assay type: cell-based; conditions: ML (monolayer), read-out: HUVEC (EC50 Ave) ML
[3] = test system: tubulin; assay: Fluorescence-based tubulin polymerization assay (MPA; enhancement for paclitaxel, inhibition for vinblastine); assay type: biochemical
Source text: Drug-linker constructs may further be screened using functional assays predictive of biological activity. […] Tubulin assembly or inhibition thereof may be monitored by fluorescence using the CytoDYNAMIX Screen™ 10 kit available from Cytoskeleton (1830 S. Acoma St., Denver, Colo.). […] Emission is monitored at 405 nm with excitation at 360 nm. […] Tubulin assembly or inhibition may also be monitored by light scattering which is approximated by the apparent absorption at 350 nm. For paclitaxel drug conjugates BSA is employed to prevent aggregation and glycerol, which is a tubulin polymerization enhancer, is omitted from the kit to increase the signal to noise ratio.
The assay kit (#BK011) was purchased from Cytoskeleton (Denver, Colo.). The assays were carried out according to the manufacturer's instructions, except that 1 mg/ml BSA (Sigma #A3059) was included in all assays. […] Parent drugs and conjugates were tested at 0.75, 1.5, 3 and 10 micromolar final concentration and results represent a comparison of conjugate and parent drug curves obtained from the linear range of the dose responses.
(±SD) represent the average of all tests carried out for all lots of a given compound.

[4] = test system: MCF-7 breast carcinoma; assay: Cytotoxicity assay (monolayer), MCF-7; assay type: cell-based; conditions: MCF7, ML (monolayer); read-out: MCF7 (EC50 Ave) ML;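 further: cells treated 72 h with 6-8 compound doses versus DMSO vehicle controls, EC50 fitted by 4-parameter dose-response curves, averaged across all tests and lots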
[5] = test system: Normal human foreskin fibroblasts (HFF); conditions: read-out: HFF (EC50 Ave) ML; HFF, ML (monolayer)
[6] = test system: HT-29 colorectal carcinoma; assay: Cytotoxicity assay (monolayer), HT-29; assay type: cell-based; conditions: HT29, ML (monolayer); read-out: HT29 (EC50 Ave) ML;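 further: monolayer cultures tested in triplicate, compound exposure for three days against DMSO vehicle controls, EC50 fitted from dose-response curves and averaged across all tests and lots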

BOC-YI(phospho)YGSFK(BOC)-PEG(11)-3Am-VBL (Boc-YIYGSFK(Boc)-{PEG(11)-3Am-VBL}; reading uncertain; also: phospho at I2 as written: I(phospho), printed as BOC-YI(phospho)YGSFK(BOC)-PEG(11)-3Am-VBL)
Average src kinase activity [1]: C (C>40) | EC50 [2]: > 100 nM | Ave. MPA Act. [3]: C (C>80) | EC50 [4]: > 100 nM | EC50 [5]: 20 to 100 nM

Ac-YIFGSFK-PEG(11)-3Am-VBL (N-acetyl; PEG(11) linker; vinblastine conjugate)
Average src kinase activity [1]: C (C>40) | EC50 [2]: > 100 nM | Ave. MPA Act. [3]: B (B=50-80) | EC50 [6]: > 100 nM | EC50 [4]: > 100 nM | EC50 [5]: > 100 nM

CBz-YIFGSFK-PEG(11)-3Am-VBL (N-CBz; PEG(11) linker; vinblastine conjugate)
Average src kinase activity [1]: A (A<20) | EC50 [2]: > 100 nM | Ave. MPA Act. [3]: B (B=50-80) | EC50 [6]: > 100 nM | EC50 [4]: > 100 nM | EC50 [5]: > 100 nM

CBz-GIYWHHY-PEG(11)-3Am-VBL (N-CBz; PEG(11) linker; vinblastine conjugate)
Average src kinase activity [1]: A (A<20) | Ave. MPA Act. [3]: B (B=50-80) | EC50 [6]: > 100 nM | EC50 [4]: > 100 nM

Ac-YIYGSFR-PEG(13)-10Ca-PXL (N-acetyl; PEG(13) linker; paclitaxel conjugate)
Average src kinase activity [1]: C (C>40) | EC50 [2]: > 100 nM | Ave. MPA Act. [3]: B (B=50-80) | EC50 [6]: > 100 nM | EC50 [4]: > 100 nM | EC50 [5]: > 100 nM

CBz-YIYGSFK-3′Alk-MAL(9)-DOX (Cbz-YIYGSFK-{3′Alk-MAL(9)-DOX}; reading uncertain; also: printed as CBz-YIYGSFK-3′Alk-MAL(9)-DOX)
Src (Qual. Act.) [1]: C (C>40) | EC50 [2]: > 100 nM | EC50 [4]: > 100 nM

Ac-EYIYGSFK-3′Alk-MAL(9)-DOX (Ac-EYIYGSFK-{3′Alk‑MAL(9)-DOX}; reading uncertain; also: printed as Ac-EYIYGSFK-3′Alk-MAL(9)-DOX)
Src (Qual. Act.) [1]: C (C>40) | EC50 [2]: > 100 nM | EC50 [4]: > 100 nM | EC50 [5]: > 100 nM

H-YIYGSFK-3′Alk-MAL(9)-DOX (H-YIYGSFK-{3′Alk-MAL(9)-DOX}; reading uncertain)
Src (Qual. Act.) [1]: C (C>40) | EC50 [4]: > 100 nM | EC50 [5]: > 100 nM

CBz-YIYGSFK(BOC)-PEG(11)-3Am-VBL (Cbz-YIYGSFK(Boc)-{PEG(11)-3Am-VBL}; reading uncertain; also: printed as CBz-YIYGSFK(BOC)-PEG(11)-3Am-VBL)
Average src kinase activity [1]: A (A<20) | EC50 [2]: > 100 nM | Ave. MPA Act. [3]: C (C>80) | EC50 [6]: > 100 nM | EC50 [4]: > 100 nM

CBz-YIYGSFK(CBz)-ALK(6)-10Es-PXL (Cbz-YIYGSFK(Cbz)-{ALK(6)-10Es-PXL}; reading uncertain; also: printed as CBz-YIYGSFK(CBz)-ALK(6)-10Es-PXL)
Average src kinase activity [1]: Zero | EC50 [6]: > 100 nM | EC50 [4]: 20 to 100 nM

H-GIYWHHY-PEG(29)-3Am-VBL (H-GIYWHHY-{PEG(29)-3Am-VBL}; reading uncertain)
Average src kinase activity [1]: C (C>40) | EC50 [2]: > 100 nM | Ave. MPA Act. [3]: C (C>80) | EC50 [4]: > 100 nM | EC50 [5]: > 100 nM

Ac-YIYGSFK-3′Alk-MAL(9)-DOX (Ac-YIYGSFK-{3′Alk-MAL(9)-DOX}; reading uncertain; also: printed as Ac-YIYGSFK-3′Alk-MAL(9)-DOX)
Src (Qual. Act.) [1]: C (C>40) | EC50 [4]: > 100 nM

Ac-EYIFGSFK-PEG(13)-10Ca-PXL (N-acetyl, PEG13, paclitaxel conjugate)
Average src kinase activity [1]: Zero | EC50 [2]: > 100 nM | Ave. MPA Act. [3]: B (B=50-80) | EC50 [6]: > 100 nM | EC50 [4]: > 100 nM

H-YIYGSFK-ALK(6)-10Es-PXL (H-YIYGSFK-{ALK(6)-10Es-PXL}; reading uncertain)
Average src kinase activity [1]: C (C>40) | Ave. MPA Act. [3]: B (B=50-80) | EC50 [6]: > 100 nM | EC50 [4]: > 100 nM | EC50 [5]: > 100 nM

Ac-E(Bzl)YIYGSFK(CBz)-PEG(13)-10Ca-PXL (Ac-E(OBn)YIYGSFK(Cbz)-{PEG(13)-10Ca-PXL})
Average src kinase activity [1]: Zero | Ave. MPA Act. [3]: A (A<50)

Pv-RLVAYEGYV-PEG(11)-3Am-VBL (Piv-RLVAYEGYV-{PEG(11)-3Am‑VBL})
EC50 [2]: > 100 nM | Ave. MPA Act. [3]: B (B=50-80) | EC50 [6]: > 100 nM | EC50 [4]: > 100 nM | EC50 [5]: > 100 nM

BOC-GIYWHHY-PEG(11)-3Am-VBL (N-BOC; PEG(11) linker; vinblastine conjugate)
Average src kinase activity [1]: A (A<20) | Ave. MPA Act. [3]: B (B=50-80) | EC50 [6]: > 100 nM | EC50 [4]: > 100 nM

Pv-GRSRTSSFAEG-PEG(13)-10Ca-PXl (Piv-GRSRTSSFAEG-{PEG(13)-10Ca‑PXL}; also: 2 TFA salt)
Ave. MPA Act. [3]: C (C>80)

BOC-GIYWHHY-PEG(29)-3Am-VBL (N-BOC; PEG(29) linker; vinblastine conjugate)
Average src kinase activity [1]: A (A<20) | EC50 [2]: > 100 nM | Ave. MPA Act. [3]: B (B=50-80) | EC50 [4]: > 100 nM | EC50 [5]: > 100 nM

Pv-RLVAYEGYV-PEG(13)-10Ca-PXL (Piv-RLVAYEGYV-{PEG(13)-10Ca‑PXL})
EC50 [2]: > 100 nM | Ave. MPA Act. [3]: A (A<50) | EC50 [6]: > 100 nM | EC50 [4]: > 100 nM | EC50 [5]: > 100 nM

Ac-EYIYGSFK(CBz)-PEG(13)-10Ca-PXL (Ac-EYIYGSFK(Cbz)-{PEG(13)-10Ca-PXL})
Average src kinase activity [1]: B (B=20-40) | EC50 [2]: > 100 nM | Ave. MPA Act. [3]: A (A<50) | EC50 [6]: > 100 nM | EC50 [4]: > 100 nM

Ac-YIYGSFK-PEG(13)-10Ca-PXL (N-acetyl; PEG(13) linker; paclitaxel conjugate)
Average src kinase activity [1]: C (C>40) | EC50 [2]: > 100 nM | Ave. MPA Act. [3]: B (B=50-80) | EC50 [6]: > 100 nM | EC50 [4]: > 100 nM
